Measurements as given in patent US6486098B1, “Herbicidal phenoxypropionic acid N-alkyl-N-2-fluorophenyl amide compounds” (Dongbu Hannong Chemical Co. Ltd., priority 1999, dated 2002).

How the values were obtained:
[1] = tested on: PANDI (Fall panicum); test: Leaf treatment test, fall panicum; assay type: in vivo, Panicum dichotomiflorum Michx; settings: 14 days after treatment
Method: (§1) Seeds of rice, wheat, barley, corn, cotton, barnyard grass, common sorgum, large crabgrass and fall panicum were seeded at a pot with a surface area of 600 cm^2. […] 14 days after the treatment, the degree of damage to the plants was rated in % damage in comparison to the development of untreated control.

[2] = tested on: DIGSA (Large crabgrass); test: Leaf treatment test, large crabgrass; assay type: in vivo, Digitaria Sanguinalis (L.) SCOP; settings: 14 days after treatment
Method: as §1

[3] = tested on: ECHCG (Barnyard grass); test: Leaf treatment test, barnyard grass; assay type: in vivo, Echinochloa crus-galli Beauv. var. caudata Kitagawa; settings: leaf treatment at three leaves, 14 days after treatment
Method: as §1

[4] = tested on: GOSHI (Cotton); test: Leaf treatment test, cotton; assay type: in vivo, Gossypium; settings: 14 days after treatment
Method: as §1

[5] = tested on: TRZAW (Wheat); test: Leaf treatment test, wheat; assay type: in vivo, Triticum aestivum L.; settings: 14 days after treatment
Method: as §1

[6] = tested on: ORYSA (Rice); test: Leaf treatment test, rice; assay type: in vivo, Oryza sativa L. cv. Dongjin; settings: 14 days after treatment
Method: as §1

[7] = tested on: GLXMA (Soy bean); test: Leaf treatment test, soy bean; assay type: in vivo, Glycine max (L.) MERR; settings: 14 days after treatment
[8] = tested on: SORBI (Common sorgum); test: Leaf treatment test, common sorgum; assay type: in vivo, Andropogon sorghum; settings: 14 days after treatment
Method: as §1

[9] = tested on: ZEAMX (Corn); test: Leaf treatment test, corn; assay type: in vivo, Zea mays L.; settings: 14 days after treatment
Method: as §1

SMILES	degree of damage to the plants (% damage) ([1]; treated amount 0.1 kg/ha) [%]	degree of damage to the plants (% damage) ([1]; treated amount 0.4 kg/ha) [%]	degree of damage to the plants (% damage) ([2]; treated amount 0.025 kg/ha) [%]	degree of damage to the plants (% damage) ([2]; treated amount 0.1 kg/ha) [%]	degree of damage to the plants (% damage) ([2]; treated amount 0.4 kg/ha) [%]	degree of damage to the plants (% damage) ([3]; treated amount 0.025 kg/ha) [%]	degree of damage to the plants (% damage) ([3]; treated amount 0.1 kg/ha) [%]	degree of damage to the plants (% damage) ([3]; treated amount 0.4 kg/ha) [%]	degree of damage to the plants (% damage) ([4]; treated amount 0.025 kg/ha) [%]	degree of damage to the plants (% damage) ([4]; treated amount 0.1 kg/ha) [%]	degree of damage to the plants (% damage) ([4]; treated amount 0.4 kg/ha) [%]	degree of damage to the plants (% damage) ([5]; treated amount 0.025 kg/ha) [%]	degree of damage to the plants (% damage) ([5]; treated amount 0.1 kg/ha) [%]	degree of damage to the plants (% damage) ([5]; treated amount 0.4 kg/ha) [%]	degree of damage to the plants (% damage) ([6]; treated amount 0.025 kg/ha) [%]	degree of damage to the plants (% damage) ([6]; treated amount 0.1 kg/ha) [%]	degree of damage to the plants (% damage) ([6]; treated amount 0.4 kg/ha) [%]	degree of damage to the plants (% damage) ([7]; treated amount 0.025 kg/ha) [%]	degree of damage to the plants (% damage) ([7]; treated amount 0.1 kg/ha) [%]	degree of damage to the plants (% damage) ([7]; treated amount 0.4 kg/ha) [%]	further results
Cc1ccc(F)c(N(C)C(=O)C(C)Oc2ccc(Oc3nc4ccc(Cl)cc4o3)cc2)c1 (centres unmarked) [Compound No. 7]	100	100	100	100	100	20	40	40	0	0	0	0	0	0	0	0	0	0	0	10	degree of damage to the plants (% damage) ([1]; treated amount 0.025 kg/ha): 100%; degree of damage to the plants (% damage) ([8]; treated amount 0.025 kg/ha): 10%; degree of damage to the plants (% damage) ([8]; treated amount 0.1 kg/ha): 95%; degree of damage to the plants (% damage) ([8]; treated amount 0.4 kg/ha): 100%; degree of damage to the plants (% damage) ([9]; treated amount 0.025 kg/ha): 0%; degree of damage to the plants (% damage) ([9]; treated amount 0.1 kg/ha): 0%; degree of damage to the plants (% damage) ([9]; treated amount 0.4 kg/ha): 0%
CC(Oc1ccc(Oc2nc3ccc(Cl)cc3o2)cc1)C(=O)N(C)c1ccc(Cl)cc1F (centres unmarked) [Compound No. 8]	0	100	30	95	100	0	0	70	0	0	0	0	0	0	0	0	0	0	0	0	degree of damage to the plants (% damage) ([1]; treated amount 0.025 kg/ha): 0%; degree of damage to the plants (% damage) ([8]; treated amount 0.025 kg/ha): 0%; degree of damage to the plants (% damage) ([8]; treated amount 0.1 kg/ha): 70%; degree of damage to the plants (% damage) ([8]; treated amount 0.4 kg/ha): 100%; degree of damage to the plants (% damage) ([9]; treated amount 0.025 kg/ha): 0%; degree of damage to the plants (% damage) ([9]; treated amount 0.1 kg/ha): 0%; degree of damage to the plants (% damage) ([9]; treated amount 0.4 kg/ha): 0%
CC(Oc1ccc(Oc2nc3ccc(Cl)cc3o2)cc1)C(=O)N(C)c1cc(F)ccc1F (centres unmarked) [Compound No. 9]	100	100	100	100	100	70	80	80	0	0	0	0	0	0	0	0	20	0	0	0	degree of damage to the plants (% damage) ([1]; treated amount 0.025 kg/ha): 90%; degree of damage to the plants (% damage) ([8]; treated amount 0.025 kg/ha): 90%; degree of damage to the plants (% damage) ([8]; treated amount 0.1 kg/ha): 100%; degree of damage to the plants (% damage) ([8]; treated amount 0.4 kg/ha): 100%; degree of damage to the plants (% damage) ([9]; treated amount 0.025 kg/ha): 0%; degree of damage to the plants (% damage) ([9]; treated amount 0.1 kg/ha): 0%; degree of damage to the plants (% damage) ([9]; treated amount 0.4 kg/ha): 100%
Cc1ccc(N(C)C(=O)C(C)Oc2ccc(Oc3nc4ccc(Cl)cc4o3)cc2)c(F)c1 (centres unmarked) [Compound No. 10]	0	70	70	95	100	0	0	80	0	0	0	0	0	0	0	0	0	0	0	0	degree of damage to the plants (% damage) ([1]; treated amount 0.025 kg/ha): 0%; degree of damage to the plants (% damage) ([8]; treated amount 0.025 kg/ha): 30%; degree of damage to the plants (% damage) ([8]; treated amount 0.1 kg/ha): 60%; degree of damage to the plants (% damage) ([8]; treated amount 0.4 kg/ha): 100%; degree of damage to the plants (% damage) ([9]; treated amount 0.025 kg/ha): 0%; degree of damage to the plants (% damage) ([9]; treated amount 0.1 kg/ha): 0%; degree of damage to the plants (% damage) ([9]; treated amount 0.4 kg/ha): 0%
COc1ccc(N(C)C(=O)C(C)Oc2ccc(Oc3nc4ccc(Cl)cc4o3)cc2)c(F)c1 (centres unmarked) [Compound No. 11]	20	40	95	95	95	0	0	40	0	0	0	0	0	0	0	0	0	0	0	0	degree of damage to the plants (% damage) ([8]; treated amount 0.025 kg/ha): 0%; degree of damage to the plants (% damage) ([8]; treated amount 0.1 kg/ha): 20%; degree of damage to the plants (% damage) ([8]; treated amount 0.4 kg/ha): 70%; degree of damage to the plants (% damage) ([9]; treated amount 0.025 kg/ha): 0%; degree of damage to the plants (% damage) ([9]; treated amount 0.1 kg/ha): 0%; degree of damage to the plants (% damage) ([9]; treated amount 0.4 kg/ha): 0%
